Where a SMILES comes first, the peptide text is derived from it.
Columns and labels:
HX34 cells = experiment: % viability by visual observation under phase contrast microscopy, 48 well, Experiment 2 first experiment; format: cell-based, human
Experimental: (§1) In a first experiment, MGHU-1 cells (a human bladder cancer cell line), were plated in 48 well tissue culture dishes in 0.2 ml complete Hams F12 tissue culture medium supplemented with 10% foetal calf serum. SKMEL-2 cells (a human malignant melanoma cell line), HX34 cells (a human malignant melanoma cell line) and H441 cells (a human lung cancer cell line) were plated under identical conditions. The cells were incubated at 37° C. in an atmosphere of 5% CO2.
(§2) After 24 h, the culture medium was then removed from each well and replaced by Hams F12 complete tissue culture medium (without foetal calf serum). The culture medium added to each well was supplemented with a peptide having the sequence set out in SEQ ID NO:1, SEQ ID NO:2 or SEQ ID NO:3 at a concentration of either 0.5, 1.0 or 5.0 mM in such a way that each cell line was exposed to each peptide at each concentration.
(§3) The cells were then cultured for two days. Foetal calf serum was then added to a final concentration of 10%, and the cells were left for a further 5 days. The % viability of the cells in each well was calculated by visual observation under phase contrast microscopy. The effect of the peptides having the amino acid sequences set out in SEQ ID NO:1 and SEQ ID NO:3 on the viability of the SK MeI-2, MGHU-1, HX34 and H441 cell lines is shown in FIG. 12. […] Where the concentration of SEQ ID NO:1 was 1.0 mM, 100% of MGHU-1 cells were killed. The viability of the other cell lines was not affected.

SKMEL-2 cells = experiment: as above; format: cell-based, human
Experimental: as §1, §2, §3

H441 cells = experiment: as above; format: cell-based, human
Experimental: as §1, §2, §3

MGHU-1 cells = experiment: as above; format: cell-based, human
Experimental: as §1, §2, §3

[1] = test system: short term primary culture of human fibroblasts; experiment: Experiment 2 further experiment, cells viewed under phase contrast microscopy; format: cell-based; details: for cytotoxicity to cultured primary cultures of normal human cells: conclusion of Experiment 2; for appearance of cells: 2.5 mM peptide, 2 days plus a further 7 days, FIG. 14
Experimental: In a further experiment, using a different batch of synthesized peptide, RT112 cells (a human bladder cancer cell line), HT29 cells (a human colon cancer cell line) and MGHU cells (a human bladder cancer cell line) were plated as described above. In parallel, a short term primary culture of human fibroblasts was plated in 48 well plates. After 24 h, the tissue culture medium was removed from each well and replaced with Hams F12 complete tissue culture medium (without foetal calf serum) supplemented with either 2.5 mM SEQ ID NO:1 or 2.5 mM SEQ ID NO:4. After culturing for 2 days, foetal calf serum was added to a concentration of 10%. The cells were then cultured for a further 7 days and viewed under phase contrast microscopy.
These peptides are not cytotoxic to cultured primary cultures of normal human cells.

[2] = test system: Normal non-cancerous fibroblasts; experiment: Experiments 3 and 4, 96 well plates, viability by phase contrast microscopy; format: cell-based
Experimental: (§4) Normal non-cancerous fibroblasts and cancer cells were exposed to the linear hexamer PRGPRP SEQ ID NO: 5 in 96 micro well plates using the same protocol as for SEQ. ID NO: 1 as previously described. The percent viability of the cells in each well was calculated by visual observation under phase contrast microscopy as previously described.
(§5) In order to define structure/function relationships different peptides were constructed SEQ ID NOS 5-16. Normal non-cancerous fibroblasts and cancer cells were exposed to 5 mM of these peptides in 96 well plates as previously described. The sequence of these peptides is listed below. Results were scored at 21 days.

cancer cells = experiment: as above; format: cell-based; details: summary statement
Experimental: as §4, §5

[3] = test system: non-cancerous fibroblasts; experiment: Subsequent experiments testing cancerous and non-cancerous cell lines; format: cell-based
[4] = test system: normal non cancerous fibroblasts; experiment: Experiment 6, cell growth by daily phase-contrast microscopy, 96 well plates; format: cell-based
Experimental: (§6) Cancer cells and non-cancerous fibroblasts were separately seeded at 10^2 to 10^4 cells in 200 μl of Hams F12 tissue culture medium plus 10% fetal calf serum in 96 well plates and exposed to varying concentrations of a peptide having an amino acid sequence set out in SEQ ID NO: 17 ranging from 5.0 μM to 100 μM. Cell growth was studied by daily phase-contrast microscopy over 25 days.

[5] = test system: MGHU-1 bladder cancer cells; experiment: as above; format: cell-based, human
Experimental: as §6

[6] = visual observation of cell density and viability
[7] = any concentration (0.5, 1.0 or 5.0 mM), day 7

In the case of CC(C)[C@H](NC(=O)[C@@H]1CCCN1C(=O)[C@H](CCCNC(=N)N)NC(=O)[C@@H](NC(=O)CNC(=O)[C@H](CCCNC(=N)N)NC(=O)[C@@H]1CCCN1C(=O)[C@@H](NC(=O)[C@@H](N)Cc1ccccc1)[C@@H](C)O)[C@@H](C)O)C(=O)N[C@@H](CCC(N)=O)C(=O)O [SEQ ID NO:2] (H-FTPRGTRPVQ-OH; N-terminus and C-terminus assumed), the cytotoxicity (HX34 cells; [6]) is reported as “cytotoxic”, the “cytotoxicity compared with SEQ ID NO:1” value (HX34 cells; [6]) is reported as “less cytotoxic” and the cytotoxicity (SKMEL-2 cells; [6]) is reported as “cytotoxic”. For the same compound, the “cytotoxicity compared with SEQ ID NO:1” value (SKMEL-2 cells; [6]) was “less cytotoxic”, the cytotoxicity (H441 cells; [6]) was “cytotoxic” and the “cytotoxicity compared with SEQ ID NO:1” value (H441 cells; [6]) was “less cytotoxic”. The cytotoxicity (MGHU-1 cells; [6]) was “cytotoxic”, the “cytotoxicity compared with SEQ ID NO:1” value (MGHU-1 cells; [6]) was “less cytotoxic” and the “cytotoxicity to cultured primary cultures of normal human cells” value [1] was “not cytotoxic”.

For N=C(N)NCCC[C@H](NC(=O)[C@@H]1CCCN1)C(=O)NCC(=O)N1CCC[C@H]1C(=O)N[C@@H](CCCNC(=N)N)C(=O)N1CCC[C@H]1C(=O)O [SEQ ID NO: 5, PRGPRP] (H-PRGPRP-OH), the state of fibroblasts ([2]; 21 days and beyond) was “remained healthy”, the “growth of non-cancerous cells tested” value ([2]; summary statement) was “non-inhibitory” and the “cytotoxicity to cancer cells tested” value (cancer cells) was “cytotoxic”.

For “ATTEGTETVQ [SEQ ID NO:3, reference compound]”, the viability (HX34 cells; [7]) was “did not affect viability”, the viability (SKMEL-2 cells; [7]) was “did not affect viability” and the viability (H441 cells; [7]) was “did not affect viability”. The viability (MGHU-1 cells; [7]) was “did not affect viability”.

In the case of CC(C)[C@H](NC(=O)[C@H](CCCNC(=N)N)NC(=O)[C@H](Cc1ccccc1)NC(=O)[C@@H]1CCCN1C(=O)CNC(=O)[C@@H]1CCCN1)C(=O)N1CCC[C@H]1C(=O)N[C@@H](CCC(N)=O)C(=O)N1CCC[C@H]1C(=O)N[C@@H](CCCNC(=N)N)C(=O)O [SEQ ID NO:4, reference compound] (H-PGPFRVPQPR-OH), the appearance of cells [1] is reported as “appear to be healthy”.

With CC(C)[C@H](NC(=O)[C@@H]1CCCN1C(=O)[C@H](CCCNC(=N)N)NC(=O)[C@@H]1CCCN1C(=O)CNC(=O)[C@H](CCCNC(=N)N)NC(=O)[C@@H]1CCCN1C(=O)[C@@H]1CCCN1C(=O)[C@@H](N)Cc1ccccc1)C(=O)N[C@@H](CCC(N)=O)C(=O)O [SEQ ID NO:1] (H-FPPRGPRPVQ-OH; N-terminus and C-terminus assumed) the appearance of cells [1] was “appear to be healthy”, the “cytotoxicity to cultured primary cultures of normal human cells” value [1] was “not cytotoxic” and the cell killing ([3]; between days 20 and 25) was “specific killing of cancerous cells and not non-cancerous fibroblasts”. The cell killing ([3]; within the first seven days, cells then recovered) was “non specific killing”.

In the case of “cyclo-[PRGPRPVPRGPRPVPRGPRPV] (cyclic) [SEQ ID NO: 17]”, the stimulation of fibroblasts ([4]; 10 days exposure, 10 μM, FIG. 18) is reported as “marked non-cancerous fibroblast stimulation”, the stimulation of fibroblasts ([4]; between 5 and 10 days after exposure, 5.0 μM to 100 μM) is reported as “Marked stimulation” and the cell morphology ([5]; after 20 days exposure, FIG. 19) is reported as “marked loss of normal cell morphology”. For the same compound, the “cell morphology of cancerous cells” value ([5]; no complete detachment of dead cells from the plastic surface) was “loss of clear cell morphology”.

Reference: US8748389B2, “Treating cancer” (Theryte Limited, priority 2004, dated 2014)
